Source: the supplement of paper PMC10307832

Legend:
Experiment in all cases: relative viability (nuclei count vs DMSO), 5 days (fraction); higher = more cells survive
[1] = compound: CC1=NC=CC(=C1)C2=CC=C(C=C2)CC(=O)NC3=CC=C(C=C3)C4=CN=CC=C4 [Wnt-C59] + CCNC(=O)c1noc(-c2cc(C(C)C)c(O)cc2O)c1-c1ccc(CN2CCOCC2)cc1 [Luminespib] (partner 0.01 µM)
How it was run: (§1)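 A single step with final 0.05% Triton X-100, 1% formaldehyde and 1 ug/ml Hoechst fixed the cells and stained nuclei 5 days after treatment. Lung cancer cell lines in 1536-well plates had been treated by pin tool the day after seeding with one drug alone or a fixed anchor-drug dose plus five library-drug doses (not always all listed) in √10 steps, and nuclei were counted on 4× images. Relative viability is the ratio of nuclei in treated wells to nuclei in vehicle wells, taken as the median of duplicate plates.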

[2] = compound: CS(=O)(=O)CCNCc1ccc(-c2ccc3ncnc(Nc4ccc(OCc5cccc(F)c5)c(Cl)c4)c3c2)o1 [Lapatinib] + CCNC(=O)c1noc(-c2cc(C(C)C)c(O)cc2O)c1-c1ccc(CN2CCOCC2)cc1 [Luminespib] (partner 0.01 µM)
How it was run: as §1

[3] = compound: CS(=O)(=O)CCNCc1ccc(-c2ccc3ncnc(Nc4ccc(OCc5cccc(F)c5)c(Cl)c4)c3c2)o1 [Lapatinib] + N=C(N)NC(=N)NCCc1ccccc1 [Phenformin] (partner 250 µM)
How it was run: as §1

[4] = compound: CS(=O)(=O)CCNCc1ccc(-c2ccc3ncnc(Nc4ccc(OCc5cccc(F)c5)c(Cl)c4)c3c2)o1 [Lapatinib] + O=C(CCCCCCC(=O)Nc1ccccc1)NO [Vorinostat] (partner 1 µM)
How it was run: as §1

Row | Cell Line | relative viability ([1]; first compound 0.001 µM) | relative viability ([1]; first compound 0.01 µM) | relative viability ([1]; first compound 0.03162 µM) | relative viability ([1]; first compound 0.1 µM) | relative viability ([2]; first compound 0.2 µM) | relative viability ([2]; first compound 0.6325 µM) | relative viability ([2]; first compound 2 µM) | relative viability ([3]; first compound 0.2 µM) | relative viability ([3]; first compound 0.6325 µM) | relative viability ([3]; first compound 2 µM) | relative viability ([4]; first compound 0.02 µM) | relative viability ([4]; first compound 0.2 µM) | relative viability ([4]; first compound 0.6325 µM) | relative viability ([4]; first compound 2 µM) | relative viability ([2]; first compound 0.02 µM) | relative viability ([2]; first compound 0.06325 µM) | relative viability ([3]; first compound 0.02 µM) | relative viability ([3]; first compound 0.06325 µM) | relative viability ([4]; first compound 0.06325 µM)
1 | LK-2 | 0.199 | 0.159 | 0.174 | 0.213 | 0.174 | 0.211 | 0.177 | 0.606 | 0.663 | 0.419 | 0.173 | 0.222 | 0.325 | 0.357 | – | – | – | – | –
2 | COR-L23 | 0.758 | 0.667 | 0.742 | 0.617 | 0.731 | 0.646 | 0.567 | 0.474 | 0.455 | 0.42 | 0.422 | 0.558 | 0.553 | 0.393 | 0.715 | 0.688 | 0.419 | 0.421 | 0.522
3 | PC-14 | 0.178 | 0.166 | 0.144 | 0.16 | 0.12 | 0.192 | 0.149 | 0.523 | 0.461 | 0.337 | 0.652 | 0.76 | 0.732 | 0.0919 | – | 0.147 | – | 0.642 | 0.55
4 | NCI-H2087 | 0.146 | 0.183 | 0.187 | 0.216 | 0.169 | 0.162 | 0.161 | 0.485 | 0.552 | 0.406 | 0.547 | 0.728 | 0.604 | 0.671 | – | 0.169 | – | 0.354 | 0.843
5 | HCC-15 | 0.399 | 0.297 | 0.287 | 0.369 | 0.303 | 0.293 | 0.235 | 0.521 | 0.498 | 0.484 | – | 0.813 | 0.858 | 0.693 | – | 0.425 | – | 0.398 | 0.779
6 | NCI-H2228 | 0.173 | 0.149 | 0.223 | 0.197 | 0.145 | 0.143 | 0.123 | 0.245 | 0.292 | 0.325 | 0.774 | 0.907 | 0.517 | 0.48 | 0.137 | 0.128 | 0.33 | 0.25 | 0.7
7 | NCI-H2126 | 0.83 | 1 | 0.991 | 0.892 | 0.833 | 0.859 | 0.775 | 0.529 | 0.536 | 0.406 | 0.251 | 0.717 | 0.801 | 0.614 | – | 0.729 | – | 0.393 | 0.405
8 | EMC-BAC-2 | 1.18 | 1.05 | 1.06 | 1.12 | 1.19 | 1.06 | 1.08 | 0.532 | 0.549 | 0.499 | – | – | 0.531 | 0.522 | 1.09 | 0.998 | 0.422 | 0.407 | 0.336
9 | NCI-H520 | 0.212 | 0.212 | 0.231 | 0.212 | 0.26 | 0.242 | 0.233 | 0.542 | 0.653 | 0.638 | 0.7 | 0.707 | 0.671 | 0.76 | 0.21 | 0.226 | 0.516 | 0.596 | 0.684
